Experimental data from EP2112152A1, “Dihydropteridinones as Plk Inhibitors” (GPC Biotech AG, priority 2008, dated 2009).
Where two headings read alike, the source gives them in different places.

Key:
Format in all cases: cell-based
[1] = biological target: Plk1 (Homo sapiens, UniProt P53350); assay: Cellular Plk1 kinase activity: nucleophosmin (B23) Ser4 phosphorylation in HCT116 cells (MSD electrochemiluminescence); set-up: host or cells: HCT116; details: 100 ng/ml nocodazole, 4 hours after compound addition, read-out: Biochemical IC50 Nucleophosmin assay
Method: We observed the surprising finding that compounds of the invention were able to penetrate cell membranes and retained their activity as Plk1 inhibitors against native Plk1 expressed within living cancer cells.
Cellular Plk1 kinase activity was measured by quantification of nucleophosmin (B23) Ser4 phosphorylation in a cancer cell line. Nucleophosmin (B23) Ser4 is phosphorylated by Plk1, and this phosphorylation can be specifically detected by cross-reactivity of a phospho-Mek1/2 antibody that is able to recognizes a mitotic-specific phosphorylated form of nucleophosmin (B23) in a nocodazole dependent way (Zhang, H., Shi, X., Paddon, H., Hampong, M., Dai, W., and Pelech, S. (2004) B23/Nuleophosmin Serin 4 Phosphorylation Mediates Mitotic Functions of Polo-like Kinase 1. J. Biol. Chem., 279(34), 35726-35734).
Briefly, HCT116 cells (ATCC, Order No. CCL-247) were plated in 96 well dishes 24 hours prior to nocodazole treatment at 25 000 cells per well. Cells were then treated with 100 ng/ml nocodazole (Sigma-Aldrich, # M1404). 20 hours after nocodazole treatment, cells were exposed to the test compounds at various concentrations appropriate to determine an IC50. 4 hours after compound addition, medium was carefully removed and 120 µl of Complete Tris Lysis Buffer (R60TX; MSD, Gaithersburg MD) was added to each well. Samples were then stored at -20°C.
The level of nucleophosmin (B23) Ser4 phosphorylation in these cell lysis samples was estimated by electrochemiluminescence detection using the Meso Scale Discovery ("MSD") Technology Platform (MSD, Gaithersburg MD). The protocol used was as recommended by the manufacturer with the use of a phospho-Mek1/2 antibody (Cell Signalling, #9121) as primary antibody, and is as follows.
The cell lysates were thawed at room temperature and 40 µl were incubated on 96-well MULTI-ARRAY High Bind plates (L11XB; MSD) for 1.5 - 2 hours at room temperature. The supernatants were then removed and 150 µl of a 5% (w/v) solution of Blocker A (R93AA; MSD) in Tris Wash Buffer (R61TX; MSD) were added to each well. The plates were then incubated for 1 hour at room temperature before removal of the Blocker A solution and washed 4 times with 200 µl Tris Wash Buffer. 25 µl primary antibody (anti-phospho-MEK1/2, Cell Signalling, #9121, rabbit polyclonal), diluted 1:250 in a 1% (w/v) solution of Blocker A in Tris Wash Buffer, were added to each well. The plates were then incubated for 1 hour at room temperature before removal of the antibody solution and washed 4 times with 200 µl Tris Wash Buffer. Then, 25 µl of labelled secondary antibody (SULFO-TAG Goat Anti-Rabbit IgGAntibody (R32AB; MSD), diluted 1:500 in a 1% (w/v) solution of Blocker A in Tris Wash Buffer) were added to each well. The plates were then incubated for 1 hour at room temperature before removal of the antibody solution and washed 4 times with 200 µl Tris Wash Buffer. Then, […] of 1x Read Buffer T (R92TC; MSD) were carefully added to each well and the plates were quantitatively detected for each well with a SECTOR™ Imager 6000 (MSD).
Inhibitory activity of the compounds (IC) was calculated as % inhibition of nucleophosmin (B23) Ser4 phosphorylation compared to cells not treated with nocodazole.

[2] = tested on: IMR-90; assay: SRB cell proliferation assay, IMR-90; details: Homo sapiens, 72 hours, SRB assay, slow cycling cell line, read-out: CELLULAR IC50 IMR-90
Method: (§1) We observed the surprising finding that compounds of the invention were useful in inhibiting proliferation of tumor cell lines (see Table 3).
(§2) Cells were exposed to the test compounds at various concentrations appropriate to determine an IC50 for 72 hours. Cell proliferation was measured using the SRB assay according to Shekan et al (J Natl Cancer Inst (1990) 82, 1107-112) in order to estimate the IC50 values shown in Table 3. Briefly, cells were plated in 96 well dishes 24 hours prior to compound addition at the densities specified in Table 5.1. The assay was terminated with the addition of cold TCA to a final concentration of 10% after growth medium has been removed and the plates were incubated over night at 4°C. The plates were then washed 5 times with water and 100µl of a Sulforhodamine B solution (4%) was added to each well. The plates were then incubated for 10 minutes at room temperature before removal of unbound dye by washing with 1% acetic acid. The bound dye was solubilised with 10 mM Trizma base and the absorbance read at OD520.
(§3) Inhibitory activity of the compounds (IC) was calculated as % inhibition of cell proliferation compared to cells treated with the solvent (DMSO).
(§4) Table 8.1: 18-Cell Line Panel

[3] = tested on: HCT 116; assay: SRB cell proliferation assay, HCT 116; details: Homo sapiens, 72 hours, SRB assay, read-out: CELLULAR IC50 HCT 116
Method: as §1, §2, §3, §4

[4] = tested on: HT-29; assay: SRB cell proliferation assay, HT-29; details: Homo sapiens, 72 hours, SRB assay, read-out: CELLULAR IC50 HT-29
Method: as §1, §2, §3, §4

Chain of Plk1 (P53350 whole entry, species assumed): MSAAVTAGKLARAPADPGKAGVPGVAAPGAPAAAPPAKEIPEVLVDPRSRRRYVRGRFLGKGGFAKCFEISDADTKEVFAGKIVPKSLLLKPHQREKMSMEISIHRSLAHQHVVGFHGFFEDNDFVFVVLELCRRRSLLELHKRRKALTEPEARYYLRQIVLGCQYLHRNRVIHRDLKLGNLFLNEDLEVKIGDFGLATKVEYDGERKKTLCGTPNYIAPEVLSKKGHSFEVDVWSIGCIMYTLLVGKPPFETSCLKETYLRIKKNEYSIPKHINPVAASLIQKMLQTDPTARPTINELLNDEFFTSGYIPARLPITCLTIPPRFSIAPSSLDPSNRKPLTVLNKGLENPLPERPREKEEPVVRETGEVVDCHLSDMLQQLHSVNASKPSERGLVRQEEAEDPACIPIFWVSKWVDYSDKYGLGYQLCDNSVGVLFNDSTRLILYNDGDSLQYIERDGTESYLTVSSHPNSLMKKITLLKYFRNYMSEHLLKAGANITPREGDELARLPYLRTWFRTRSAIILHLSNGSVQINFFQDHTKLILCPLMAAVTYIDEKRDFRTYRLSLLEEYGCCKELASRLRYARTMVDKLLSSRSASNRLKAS

SMILES | IC50 [1] [nM] | IC50 ([3]; HCT-116, 72 h) [nM] | IC50 ([4]; HT-29, 72 h) [nM] | IC50 [2] [nM] | IC50 ([3]; HCT-116) [nM] | IC50 ([4]; HT-29) [nM]
CCC1C(=O)N(C)c2cnc(Nc3ccc(C(=O)NCCN4CCCC4)cc3OC)nc2N1N(C)C (stereo not drawn) [Compound 2, 4-(8-Dimethylamino-7-ethyl-5-methyl-6-oxo-5,6,7,8-tetrahydro-pteridin-2-ylamino)-3-methoxy-N-(2-pyrrolidin-1-yl-ethyl)-benzamide] | < 100 | < 1000 | < 1000 | > 1000 | – | –
CCC1C(=O)N(C)c2cnc(Nc3ccc(C(=O)NCC4CCN(CC)CC4)cc3OC)nc2N1N(C)C (stereo not drawn) [Compound 3, 4-(8-Dimethylamino-7-ethyl-5-methyl-6-oxo-5,6,7,8-tetrahydro-pteridin-2-ylamino)-N-(1-ethyl-piperidin-4-ylmethyl)-3-methoxy-benzamide] | < 100 | < 1000 | < 1000 | > 1000 | – | –
CCC1C(=O)N(C)c2cnc(Nc3ccc(C(=O)NC4CCN(C(C)C)CC4)cc3OC)nc2N1N(C)C (stereo not drawn) [Compound 4, 4-(8-Dimethylamino-7-ethyl-5-methyl-6-oxo-5,6,7,8-tetrahydro-pteridin-2-ylamino)-N-(1-isopropyl-piperidin-4-yl)-3-methoxy-benzamide] | < 100 | < 1000 | < 1000 | > 1000 | – | –
CCC1C(=O)N(C)c2cnc(Nc3ccc(C(=O)NCc4ccc(N5CCN(C)CC5)cc4)cc3OC)nc2N1N(C)C (stereo not drawn) [Compound 11, 4-(8-Dimethylamino-7-ethyl-5-methyl-6-oxo-5,6,7,8-tetrahydro-pteridin-2-ylamino)-3-methoxy-N-[4-(4-methyl-piperazin-1-yl)-benzyl]-benzamide] | < 100 | – | – | > 1000 | < 1000 | < 1000
CCC1C(=O)N(C)c2cnc(Nc3ccc(C(=O)NCC4CCN(Cc5ccccc5)CC4)cc3OC)nc2N1N(C)C (stereo not drawn) [Compound 12, N-(1-Benzyl-piperidin-4-ylmethyl)-4-(8-dimethylamino-7-ethyl-5-methyl-6-oxo-5,6,7,8-tetrahydro-pteridin-2-ylamino)-3-methoxy-benzamide] | < 100 | < 1000 | < 1000 | > 1000 | – | –
CCC1C(=O)N(C)c2cnc(Nc3ccc(C(=O)NC4CCN(C)CC4)cc3OC)nc2N1N(C)Cc1ccccc1 (stereo not drawn) [Compound 15, 4-[8-(Benzyl-methyl-amino)-7-ethyl-5-methyl-6-oxo-5,6,7,8-tetrahydro-pteridin-2-ylamino]-3-methoxy-N-(1-methyl-piperidin-4-yl)-benzamide] | < 100 | < 1000 | < 1000 | > 1000 | – | –
CCC1C(=O)N(C)c2cnc(Nc3ccc(C(=O)NCC4CCN(CC)CC4)cc3OC)nc2N1N(C)Cc1ccccc1 (stereo not drawn) [Compound 21, 4-[8-(Benzyl-methyl-amino)-7-ethyl-5-methyl-6-oxo-5,6,7,8-tetrahydro-pteridin-2-ylamino]-N-(1-ethyl-piperidin-4-ylmethyl)-3-methoxy-benzamide] | < 500 | < 1000 | < 1000 | > 1000 | – | –
CCC1C(=O)N(C)c2cnc(Nc3ccc(C(=O)NCC4CCN(CC)CC4)cc3OC)nc2N1N(C)CC(C)C (stereo not drawn) [Compound 23, 4-[7-Ethyl-8-(isobutyl-methyl-amino)-5-methyl-6-oxo-5,6,7,8-tetrahydro-pteridin-2-ylamino]-N-(1-ethyl-piperidin-4-ylmethyl)-3-methoxy-benzamide] | < 100 | < 1000 | < 1000 | > 1000 | – | –
CCC1C(=O)N(C)c2cnc(Nc3ccc(C(=O)NC4CCN(C)CC4)cc3OC)nc2N1NC (stereo not drawn) [Compound 30, 4-(7-Ethyl-5-methyl-8-methylamino-6-oxo-5,6,7,8-tetrahydro-pteridin-2-ylamino)-3-methoxy-N-(1-methyl-piperidin-4-yl)-benzamide] | < 100 | < 1000 | < 1000 | > 1000 | – | –
CCC1C(=O)N(C)c2cnc(Nc3ccc(C(=O)NCC4CCN(CC)CC4)cc3OC)nc2N1NC (stereo not drawn) [Compound 32, 4-(7-Ethyl-5-methyl-8-methylamino-6-oxo-5,6,7,8-tetrahydro-pteridin-2-ylamino)-N-(1-ethyl-piperidin-4-ylmethyl)-3-methoxy-benzamide] | < 500 | < 1000 | < 1000 | > 1000 | – | –

Now from value to compound, other results behind:

IC50 [1] [nM] | IC50 ([3]; HCT-116, 72 h) [nM] | IC50 ([4]; HT-29, 72 h) [nM] | SMILES | IC50 [2] [nM] | IC50 ([3]; HCT-116) [nM] | IC50 ([4]; HT-29) [nM]
< 500 | < 1000 | < 1000 | CCC1C(=O)N(C)c2cnc(Nc3ccc(C(=O)NC4CCN(C)CC4)cc3OC)nc2N1N(C)CC1CC1 (stereo not drawn) [Compound 17, 4-[8-(Cyclopropylmethyl-methyl-amino)-7-ethyl-5-methyl-6-oxo-5,6,7,8-tetrahydro-pteridin-2-ylamino]-3-methoxy-N-(1-methyl-piperidin-4-yl)-benzamide] | > 1000 | – | –
< 100 | < 1000 | < 1000 | CCCN(C)N1c2nc(Nc3ccc(C(=O)NC4CCN(C)CC4)cc3OC)ncc2N(C)C(=O)C1CC (stereo not drawn) [Compound 20, 4-[7-Ethyl-5-methyl-8-(methyl-propyl-amino)-6-oxo-5,6,7,8-tetrahydro-pteridin-2-ylamino]-3-methoxy-N-(1-methyl-piperidin-4-yl)-benzamide] | > 1000 | – | –
< 100 | < 1000 | < 1000 | CCC1C(=O)N(C)c2cnc(Nc3ccc(C(=O)NC4CCN(C)CC4)cc3OC)nc2N1N(C)CC(C)C (stereo not drawn) [Compound 22, 4-[7-Ethyl-8-(isobutyl-methyl-amino)-5-methyl-6-oxo-5,6,7,8-tetrahydro-pteridin-2-ylamino]-3-methoxy-N-(1-methyl-piperidin-4-yl)-benzamide] | > 1000 | – | –
< 100 | < 1000 | < 1000 | CCC1C(=O)N(C)c2cnc(Nc3ccc(C(=O)NC4CCN(C)CC4)cc3OC)nc2N1N(C)CC1CCCC1 (stereo not drawn) [Compound 27, 4-[8-(Cyclopentylmethyl-methyl-amino)-7-ethyl-5-methyl-6-oxo-5,6,7,8-tetrahydro-pteridin-2-ylamino]-3-methoxy-N-(1-methyl-piperidin-4-yl)-benzamide] | > 1000 | – | –
< 100 | < 1000 | < 1000 | CCC1C(=O)N(C)c2cnc(Nc3ccc(C(=O)NC4CCN(C)CC4)cc3OC)nc2N1N(C)CC1CCC1 (stereo not drawn) [Compound 33, 4-[8-(Cyclobutylmethyl-methyl-amino)-7-ethyl-5-methyl-6-oxo-5,6,7,8-tetrahydro-pteridin-2-ylamino]-3-methoxy-N-(1-methyl-piperidin-4-yl)-benzamide] | > 1000 | – | –
